# Where a SMILES comes first, the peptide text is derived from it.
# How the values were obtained:
# [1] = test system: C. auris TDG 1912; experiment: microbe, parasite or virus in culture; format: cell-based, Candida auris
# Outline: (§1)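 Peptides 128→2 μg/mL, 2-fold series; inoculum ~5 × 10^5 CFU/mL from overnight culture (OD600 0.01, mixed 1:1). MHB non-cation-adjusted for bacteria, RPMI 1640 + 2% glucose for fungi. 37 °C, 20 h, OD600. MIC50/MIC90 at 50%/90% inhibition; n ≥ 3.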
# [2] = test system: S. aureus (MRSA) 1199B; experiment: microbe, parasite or virus in culture; format: cell-based, Staphylococcus aureus; conditions: S. aureus (MRSA) 1199B (R); shown in µM
# Outline: as §1
# [3] = RP-HPLC ElutionTime as indicator of hydrophobicity; format: physicochemical; conditions: indicator of overall hydrophobicity; semipreparative RP-HPLC, Waters SymmetryPrep C8, water/ACN gradient with 0.1% TFA, 8 mL/min, 25 °C, 254 nm
# Experimental: Crude peptides, made up to 10 mg/mL in 0.1% TFA (v/v) in ddH2O, were subjected to preparative RP-HPLC purification on an Agilent 1100 system, with elution in gradient. A gradient program at a flow rate of 8 mL/min and column temperature of 25 °C was used to achieve elution with solvent A (0.1% trifluoroacetic acid (TFA) in water (v/v)) and solvent B (0.1% TFA in 100% acetonitrile (ACN) (v/v)). The elution program was as follows: (1) At 0–73 min, 100% solvent A to 0% solvent B; (2) at 73–77 min, 40% solvent A to 60% solvent B; (3) at 77–93 min, 10% solvent A to 90% solvent B; (4) at 93–105 min, 100% solvent A to 0% solvent B. Data collected were the retention time of the major fraction for each peptide in minutes as RP-HPLC ElutionTime (ElutionTime). Absorbance was detected at 254 nm, and fractions were collected manually. The fractions collected were spun in a speed-vac to remove ACN and the contents lyophilized. After freeze-drying for 24 h the peptides were dissolved in 10% (v/v) acetic acid before being lyophilized for a second time and then stored at −20 °C.
# Molecular descriptors used in the QSAR analysis included: charge, sequence length, overall lipophilicity (L), lipophilicity contributed by the polar or nonpolar residues (LP and LN), summation of the side chain surface areas of the total peptide, polar or nonpolar residues (SCSA, SCSAP, and SCSAN), the molecular weight of the entire peptide, polar or nonpolar residues (Mw, MwP, and MwN), count of small lipophilic residues (CSL) or aromatic residues (CAR), the total number of hydrogen bond donor and acceptor centers (HBtot, HBdon, and HBacc), the total number of rotatable bonds (#RotBonds) and various amphipathicity descriptors (LP/L, LP/LN, L/LN, Q/L, Q/LN, SCSAP/SCSAN, MwP/MwN, Q/CSL, and Q/CAR) (Suppl. Table S1). Experimentally determined characteristics included ElutionTime as an indicator of overall peptide hydrophobicity and the CD structure of each peptide determined in POPG/POPE lipids representing Gram-negative membranes, POPG lipids for Gram-positive membranes, and SDS micelles for fungal membranes. AMPs with an α-helical structure were labeled 4, β-sheets were labeled 3, β-turns and mixed conformations were labeled 2, and disordered structures were labeled 1.
# [4] = test system: C. glabrata NCPF 8018; experiment: microbe, parasite or virus in culture; format: cell-based
# Outline: as §1
# [5] = test system: C. parapsilosis NCPF 3209; experiment: microbe, parasite or virus in culture; format: cell-based
# Outline: as §1
# [6] = test system: C. albicans NCPF 3281; experiment: microbe, parasite or virus in culture; format: cell-based
# Outline: as §1
# [7] = test system: C. tropicalis NCPF 8760; experiment: microbe, parasite or virus in culture; format: cell-based
# Outline: as §1
# [8] = test system: C. krusei NCPF 3876; experiment: microbe, parasite or virus in culture; format: cell-based
# Outline: as §1
# [9] = test system: human erythrocytes; experiment: In vitro hemolytic activity; format: cell-based; conditions: human erythrocytes in PBS, 1 h, 37 °C, OD550; from dose response curves
# Outline: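 Serial peptide dilutions in PBS mixed 1:1 with fresh erythrocytes, 1 h at 37 °C; supernatant OD550 measured after centrifugation. Hemolysis normalized to 0.1% Triton X-100 (full lysis) and PBS (none); HC10 and HC50 taken from dose–response curves.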
# [10] = test system: P. aeruginosa PAO1; experiment: microbe, parasite or virus in culture; format: cell-based, Pseudomonas aeruginosa; conditions: P. aeruginosa PAO1 (S)
# Outline: as §1
# [11] = test system: P. aeruginosa NCTC 13437; experiment: microbe, parasite or virus in culture; format: cell-based, Pseudomonas aeruginosa; conditions: P. aeruginosa NCTC 13437 (R); shown in µM
# Outline: as §1
# [12] = test system: A. baumannii AYE; experiment: microbe, parasite or virus in culture; format: cell-based, Acinetobacter baumannii; conditions: A. baumannii AYE (R); shown in µM
# Outline: as §1
# [13] = test system: A. baumannii ATCC 17978; experiment: microbe, parasite or virus in culture; format: cell-based, Acinetobacter baumannii; conditions: A. baumannii ATCC 17978 (S); shown in µM
# Outline: as §1
# [14] = test system: K. pneumoniae M6; experiment: microbe, parasite or virus in culture; format: cell-based, Klebsiella pneumoniae; conditions: K. pneumoniae M6 (S); shown in µM
# Outline: as §1
# [15] = test system: K. pneumoniae NCTC 13368; experiment: microbe, parasite or virus in culture; format: cell-based, Klebsiella pneumoniae; conditions: K. pneumoniae NCTC 13368 (R); shown in µM
# Outline: as §1
# [16] = test system: HaCat cell line; experiment: In vitro HaCat cytotoxicity (MTT); format: cell-based, human; conditions: 21 h exposure, OD570, relative to untreated control
# Outline: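 HaCat keratinocytes were first screened with peptide at 256 μg/mL for 21 h at 37 °C, and a dose-response was run only when cytotoxicity reached p < 0.0001. Viability was read by MTT (3 h, OD570) relative to untreated control, and LC50 was taken from the dose-response curves.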
# [17] = test system: E. coli LEC001; experiment: microbe, parasite or virus in culture; format: cell-based, Escherichia coli; conditions: E. coli LEC001 (R); shown in µM
# Outline: as §1
# [18] = test system: E. coli NCTC 12923; experiment: microbe, parasite or virus in culture; format: cell-based, Escherichia coli; conditions: E. coli NCTC 12923 (S); shown in µM
# Outline: as §1
# [19] = test system: S. aureus (MRSA) USA300; experiment: microbe, parasite or virus in culture; format: cell-based, Staphylococcus aureus; conditions: S. aureus (MRSA) USA300 (R); shown in µM
# Outline: as §1
# [20] = test system: S. aureus (MRSA) NCTC 13616; experiment: microbe, parasite or virus in culture; format: cell-based, Staphylococcus aureus; conditions: S. aureus (MRSA) NCTC 13616 (R); shown in µM
# Outline: as §1
# [21] = test system: S. aureus (MSSA) ATCC 9144; experiment: microbe, parasite or virus in culture; format: cell-based, Staphylococcus aureus; conditions: S. aureus (MSSA) ATCC 9144 (S); shown in µM
# Outline: as §1
# [22] = C. auris TDG 1912, 50% growth inhibition, RPMI 1640 + 2% glucose, 37 °C, 20 h, OD600
# [23] = C. glabrata NCPF 8018, shown in µM
# [24] = C. parapsilosis NCPF 3209, shown in µM
# [25] = C. albicans NCPF 3281, shown in µM
# [26] = C. tropicalis NCPF 8760, shown in µM
# [27] = C. krusei NCPF 3876, shown in µM
compound,measurement,setting,value
CC(C)[C@H](NC(=O)CNC(=O)[C@H](CCCNC(=N)N)NC(=O)[C@@H](N)CCCNC(=N)N)C(=O)N[C@@H](CS)C(=O)N[C@@H](CCCNC(=N)N)C(=O)N[C@@H](CS)C(=O)N[C@H](C(=O)N[C@@H](CS)C(=O)N[C@@H](CCCNC(=N)N)C(=O)N[C@@H](CCCNC(=N)N)C(N)=O)C(C)C [BTD11a] (H-RRGVCRCVCRR-NH2; N-terminus assumed),Modal MIC50,[1]; [22],64 µg/mL
same,Modal MIC50,"[1]; TDG 1912, 20 h",47 µM
same,Modal MIC90,"[1]; TDG 1912, 20 h",> 94 µM
same,Modal MIC,[2],> 94 µM
same,ElutionTime (RP-HPLC retention time of major fraction),[3],16 min
same,Modal MIC50,"[4]; C. glabrata NCPF 8018, 50% growth inhibition, RPMI 1640 + 2% glucose, 37 °C, 20 h",16 µg/mL
same,Modal MIC90,"[4]; C. glabrata NCPF 8018, 90% growth inhibition, RPMI 1640 + 2% glucose, 37 °C, 20 h",32 µg/mL
same,Modal MIC50,"[4]; NCPF 8018, 20 h",11.8 µM
same,Modal MIC90,"[4]; NCPF 8018, 20 h",23.5 µM
same,Modal MIC50,"[5]; C. parapsilosis NCPF 3209, 50% growth inhibition, RPMI 1640 + 2% glucose, 37 °C, 20 h",4 µg/mL
same,Modal MIC90,"[5]; C. parapsilosis NCPF 3209, 90% growth inhibition, RPMI 1640 + 2% glucose, 37 °C, 20 h",16 µg/mL
same,Modal MIC50,"[5]; NCPF 3209, 20 h",2.9 µM
same,Modal MIC90,"[5]; NCPF 3209, 20 h",11.8 µM
same,Modal MIC50,"[6]; C. albicans NCPF 3281, 50% growth inhibition, RPMI 1640 + 2% glucose, 37 °C, 20 h",32 µg/mL
same,Modal MIC90,"[6]; C. albicans NCPF 3281, 90% growth inhibition, RPMI 1640 + 2% glucose, 37 °C, 20 h",64 µg/mL
same,Modal MIC50,"[6]; NCPF 3281, 20 h",23.5 µM
same,Modal MIC90,"[6]; NCPF 3281, 20 h",47 µM
same,Modal MIC50,"[7]; C. tropicalis NCPF 8760, 50% growth inhibition, RPMI 1640 + 2% glucose, 37 °C, 20 h",1 µg/mL
same,Modal MIC90,"[7]; C. tropicalis NCPF 8760, 90% growth inhibition, RPMI 1640 + 2% glucose, 37 °C, 20 h",2 µg/mL
same,Modal MIC50,"[7]; NCPF 8760, 20 h",0.7 µM
same,Modal MIC90,"[7]; NCPF 8760, 20 h",1.5 µM
same,Modal MIC50,"[8]; C. krusei NCPF 3876, 50% growth inhibition, RPMI 1640 + 2% glucose, 37 °C, 20 h",32 µg/mL
same,Modal MIC90,"[8]; C. krusei NCPF 3876, 90% growth inhibition, RPMI 1640 + 2% glucose, 37 °C, 20 h",32 µg/mL
same,Modal MIC50,"[8]; NCPF 3876, 20 h",23.5 µM
same,Modal MIC90,"[8]; NCPF 3876, 20 h",23.5 µM
CC[C@H](C)[C@H](N)C(=O)N[C@@H](CC(C)C)C(=O)N[C@@H](CCCCN)C(=O)N[C@@H](CCCCN)C(=O)N[C@H](C(=O)N[C@@H](Cc1c[nH]c2ccccc12)C(=O)N[C@@H](CCC(=O)O)C(=O)NCC(=O)N[C@H](C(=O)N[C@@H](CCCCN)C(=O)N[C@@H](CO)C(=O)N[C@@H](CC(C)C)C(=O)N[C@@H](Cc1ccccc1)C(N)=O)[C@@H](C)CC)[C@@H](C)CC [K3-IsCTa] (H-ILKKIWEGIKSLF-NH2),HC10 (concentration causing 10% hemolysis),[9],84 µg/mL
same,Modal MIC,"[10]; MHB, 37 °C, 20 h, OD600, min. three biological repeats",> 128 µg/mL
same,Modal MIC,[10]; shown in µM,> 79.5 µM
same,Modal MIC,[11],39.8 µM
same,Modal MIC50,[1]; [22],> 128 µg/mL
same,Modal MIC90,"[1]; C. auris TDG 1912, 90% growth inhibition, RPMI 1640 + 2% glucose, 37 °C, 20 h, OD600",> 128 µg/mL
same,Modal MIC50,"[1]; C. auris TDG 1912, shown in µM",> 79.5 µM
same,Modal MIC90,"[1]; C. auris TDG 1912, shown in µM",> 79.5 µM
same,Modal MIC,[12],5 µM
same,Modal MIC,[13],2.5 µM
same,Modal MIC,[14],9.9 µM
same,Modal MIC,[15],9.9 µM
same,% HaCat cell death at initial screening (256μg/mL) ± SD,[16],104.1 ± 11.9%
same,Modal MIC,[17],5 µM
same,Modal MIC,[18],5 µM
same,Modal MIC,[19],9.9 µM
same,Modal MIC,[20],5 µM
same,Modal MIC,[2],5 µM
same,Modal MIC,[21],5 µM
same,Modal MIC50,[4]; [23],39.8 µM
same,Modal MIC90,[4]; [23],39.8 µM
same,Modal MIC50,[5]; [24],39.8 µM
same,Modal MIC90,[5]; [24],39.8 µM
same,Modal MIC50,[6]; [25],19.9 µM
same,Modal MIC90,[6]; [25],39.8 µM
same,Modal MIC50,[7]; [26],2.5 µM
same,Modal MIC90,[7]; [26],5 µM
same,Modal MIC50,[8]; [27],9.9 µM
same,Modal MIC90,[8]; [27],19.9 µM

# — article PMC11191095, “QSAR Reveals Decreased Lipophilicity of Polar Residues Determines the Selectivity of Antimicrobial Peptide Activity” (ACS Omega, 2024)
